Values of other authors as cited in article PMC2748991 (Planta medica, 2009).

How the values were obtained:
elastase = conditions: ref [3],[4]
trypsin = conditions: ref [5]

Substance: lyngbyastatin 5
- elastase inhibition (in words) (elastase): potent inhibitors

Substance: lyngbyastatin 6
- elastase inhibition (in words) (elastase): potent inhibitors

Substance: pompanopeptin A
- trypsin inhibition (in words) (trypsin): trypsin inhibitor
